The subject of assay [1] is PGRMC1 in A549 lung cancer cells. As to conditions: ref [33], [37]; cited from earlier work.
Assay [2] relates to sigma-2 receptors in hepatic membrane homogenates. The experiment in a line: blocking of WC-21 photoaffinity labeling of the ~24 kD protein band. Format: binding. The settings on record: rat liver membrane homogenates, photo cross-linked with WC-21, western blot. (In general: In western blotting, separated proteins are transferred to a membrane and probed.)

The text below walks through data of article PMC3624020 (Nature communications, 2011).

Each structure is given as a SMILES string.

With `Cc1ccc2c(c1)[C@H]1CN(C)CC[C@H]1N2C(=O)CSc1nnnn1-c1ccc(Cl)cc1` [AG-205], the “upregulation of PGRMC1” value in assay [1] was “induced an upregulation”.
As to `COc1cc2c(cc1OC)CN(CCCCNC(=O)c1cc(C)ccc1OC)CC2` [RHM-1, N-[4-(3,4-dihydro-6,7-dimethoxyisoquinolin-2(1H)-yl)butyl]-2-methoxy-5-methylbenzamide], the “blocking of WC-21 labeling of the ~24 kD protein band” value in assay [2] is listed as “blocked”.
On the same count and under the same terms, to `Cc1ccccc1N=C(N)Nc1ccccc1C` [DTG] belongs “blocked”.
